Experimental data published in patent publication US20240353411A1, “HE4 DETECTING PEPTIDE AND USE THEREOF” (Ajou University Industry-Academic Cooperation Foundation, priority 2022, published 2024).
No end group written: not given here.

How the values were obtained:
HE4 protein [1] = target: T1, HE4 protein (Homo sapiens, UniProt Q14508); test: ELISA assay of binding and specificity to HE4 protein; details: HRP-conjugated M13 antibody, TMB, FIG. 1
T1 construct: purchased Sinobiological, PA, USA
T1 sequence (Q14508 31-124): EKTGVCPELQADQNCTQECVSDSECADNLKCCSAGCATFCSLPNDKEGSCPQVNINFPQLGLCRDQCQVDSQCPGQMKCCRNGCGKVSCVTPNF
Description: (§1) In order to evaluate the binding affinity and specificity of the discovered SEQ ID NO: 1 peptide to the CA125 protein, and the binding affinity and specificity of the SEQ ID NO: 2 peptide to HE4, ELISA assay was performed according to the manufacturer's instructions using CA125 protein (R&D Systems Inc, MN, USA), HE4 protein (Sinobiological, PA, USA), HRP-conjugated M13 antibody (Sinobiological, PA, USA), and TMB solution (Thermo Scientific, MA, USA). In addition, to measure the binding affinity Kd (dissociation constant), the discovered peptides of SEQ ID NO: 1 and SEQ ID NO: 2 were synthesized (Biostem, Suwon, Korea), CA125 protein and HE4 protein were each fluorescently labeled using Protein Labeling kit RED-NHS 2nd Generation (NanoTemper Technologies, Munich, Germany). Afterwards, the binding affinity between peptide and protein was measured using Monolith NT.115 (NanoTemper Technologies, Munich, Germany) according to the manufacturer's instructions.

HE4 protein [2] = target: T1, HE4 protein; test: Binding affinity Kd, synthesized peptide vs fluorescently labeled protein, Monolith NT.115; details: HE4 protein labeled RED-NHS, read-out: binding affinity Kd (dissociation constant)
Description: as §1

CA125 protein [3] = target: T2, CA125 protein (Homo sapiens, UniProt Q8WXI7); test: ELISA assay of binding and specificity to CA125 protein; details: HRP-conjugated M13 antibody, TMB, FIG. 1
T2 construct: purchased R&D Systems Inc, MN, USA
T2 sequence (Q8WXI7 12660-12923 limits assumed): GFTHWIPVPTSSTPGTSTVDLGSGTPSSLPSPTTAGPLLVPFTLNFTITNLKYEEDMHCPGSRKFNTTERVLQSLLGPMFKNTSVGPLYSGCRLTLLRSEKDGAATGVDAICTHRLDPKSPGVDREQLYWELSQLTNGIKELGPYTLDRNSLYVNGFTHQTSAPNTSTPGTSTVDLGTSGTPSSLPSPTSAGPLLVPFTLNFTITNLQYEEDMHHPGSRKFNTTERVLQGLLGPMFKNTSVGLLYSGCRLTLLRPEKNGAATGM
Description: as §1

CA125 protein [4] = target: T2, CA125 protein; test: Binding affinity Kd, synthesized peptide vs fluorescently labeled protein, Monolith NT.115; details: CA125 protein labeled RED-NHS, read-out: binding affinity Kd (dissociation constant)
Description: as §1

Substance: LGSKPIN [SEQ ID NO: 2, LGSKPIN]
- specific binding to the HE4 protein (HE4 protein [1]): specifically bound
- Kd (HE4 protein [2]): 15.3 ± 12 µM

Substance: HTHGAARVPDHR [SEQ ID NO: 1, HTHGAARVPDHR]
- specific binding to the CA125 protein (CA125 protein [3]): specifically bound
- Kd (CA125 protein [4]): 0.0114 ± 0.00423 µM
